Molecules are shown by their SMILES.

Sequence of GST-tagged-Wee1 kinase (P30291 whole entry): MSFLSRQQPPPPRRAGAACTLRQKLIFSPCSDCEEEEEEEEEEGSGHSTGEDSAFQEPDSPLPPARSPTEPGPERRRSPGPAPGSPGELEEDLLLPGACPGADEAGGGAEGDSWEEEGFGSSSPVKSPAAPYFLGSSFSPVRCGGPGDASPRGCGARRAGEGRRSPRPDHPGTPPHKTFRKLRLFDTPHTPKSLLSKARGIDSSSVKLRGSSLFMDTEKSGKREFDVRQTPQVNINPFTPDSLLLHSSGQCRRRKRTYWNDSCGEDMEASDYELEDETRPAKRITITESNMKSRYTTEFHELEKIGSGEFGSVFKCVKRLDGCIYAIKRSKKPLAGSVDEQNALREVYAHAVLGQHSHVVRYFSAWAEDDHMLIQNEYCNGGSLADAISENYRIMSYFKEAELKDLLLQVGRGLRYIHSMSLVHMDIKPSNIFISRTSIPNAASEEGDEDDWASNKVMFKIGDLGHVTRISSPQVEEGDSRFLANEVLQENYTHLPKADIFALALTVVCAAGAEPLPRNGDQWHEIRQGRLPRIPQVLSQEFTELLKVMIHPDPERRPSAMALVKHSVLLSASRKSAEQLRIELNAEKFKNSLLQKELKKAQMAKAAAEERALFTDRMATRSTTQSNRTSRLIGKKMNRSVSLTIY

The test addresses GST-tagged-Wee1 kinase (Homo sapiens, UniProt P30291). Put plainly: Wee1 time-resolved fluorescence equilibrium binding assay (displacement of Oregon Green-labeled ATP-competitive kinase probe). Here is the method:
Wee1 kinase was assayed using a time-resolved fluorescence equilibrium binding assay monitoring displacement of a rapidly reversible Oregon Green-labeled ATP-competitive kinase probe (N-(2-(2-(2-(4-(4-(5-chloro-4-(2-(1-hydroxycyclobutyl)thiazol-5-yl)-1H-pyrrolo[2,3-b]pyridin-2-yl)phenyl)piperazin-1-yl)ethoxy)ethoxy)ethyl)-2′,7′-difluoro-3′,6′-dihydroxy-3-oxo-3H-spiro[isobenzofuran-1,9′-xanthene]-5-carboxamide) by competitive Wee1 inhibitors.
The Ki is the equilibrium dissociation constant of an inhibitor or competing ligand from its target. The low end stands for a stronger hold on the target, the high end for a looser hold on the target. On to `Cc1nn(-c2c(Cl)cccc2Cl)c(=O)c2cnc(Nc3ccc4c(c3)CN(C(=O)CO)CC43CC3)nc12` [Example 426, 6-(2,6-dichlorophenyl)-2-{[2′-(hydroxyacetyl)-2′,3′-dihydro-1′H-spiro[cyclopropane-1,4′-isoquinolin]-7′-yl]amino}-8-methylpyrimido[4,5-d]pyridazin-5(6H)-one], for which the affinity corresponds to a Ki of 0.11 nM. Compound `Cc1nn(-c2c(Cl)cccc2Cl)c(=O)c2cnc(Nc3ccc4c(c3)CN(S(C)(=O)=O)CC43CC3)nc12` [Example 427, 6-(2,6-dichlorophenyl)-8-methyl-2-{[2′-(methylsulfonyl)-2′,3′-dihydro-1′H-spiro[cyclopropane-1,4′-isoquinolin]-7′-yl]amino}pyrimido[4,5-d]pyridazin-5(6H)-one] gave an inhibitory constant (Ki) of 0.91 nM. In the case of `COCc1nn(-c2c(Cl)cccc2Cl)c(=O)c2cnc(Nc3ccc4c(c3)CNCC43CC3)nc12` [Example 428, 6-(2,6-dichlorophenyl)-2-(2′,3′-dihydro-1′H-spiro[cyclopropane-1,4′-isoquinolin]-7′-ylamino)-8-(methoxymethyl)pyrimido[4,5-d]pyridazin-5(6H)-one] it was 0.24 nM; in that of `COCc1nn(-c2c(Cl)cccc2Cl)c(=O)c2cnc(Nc3ccc4c(c3)CN(C)CC43CC3)nc12` [Example 429, 6-(2,6-dichlorophenyl)-8-(methoxymethyl)-2-[(2′-methyl-2′,3′-dihydro-1′H-spiro[cyclopropane-1,4′-isoquinolin]-7′-yl)amino]pyrimido[4,5-d]pyridazin-5(6H)-one], 0.48 nM. For `O=c1c2cnc(Nc3ccc(N4CCNCC4)cc3)nc2c(CO)nn1-c1c(Cl)cccc1Cl` [Example 430, 6-(2,6-dichlorophenyl)-8-(hydroxymethyl)-2-{[4-(piperazin-1-yl)phenyl]amino}pyrimido[4,5-d]pyridazin-5(6H)-one] the value was 0.2 nM; for `CN1CCN(c2ccc(Nc3ncc4c(=O)n(-c5c(Cl)cccc5Cl)nc(CO)c4n3)cc2)CC1` [Example 431, 6-(2,6-dichlorophenyl)-8-(hydroxymethyl)-2-{[4-(4-methylpiperazin-1-yl)phenyl]amino}pyrimido[4,5-d]pyridazin-5(6H)-one], 0.42 nM. In the case of `CN1Cc2cc(Nc3ncc4c(=O)n(-c5c(Cl)cccc5Cl)nc(CO)c4n3)ccc2C2(CC2)C1` [Example 432, 6-(2,6-dichlorophenyl)-8-(hydroxymethyl)-2-[(2′-methyl-2′,3′-dihydro-1′H-spiro[cyclopropane-1,4′-isoquinolin]-7′-yl)amino]pyrimido[4,5-d]pyridazin-5(6H)-one] it was 0.2 nM; in that of `O=c1c2cnc(Nc3ccc4c(c3)CNCC43CC3)nc2c(CO)nn1-c1c(Cl)cccc1Cl` [Example 433, 6-(2,6-dichlorophenyl)-2-(2′,3′-dihydro-1′H-spiro[cyclopropane-1,4′-isoquinolin]-7′-ylamino)-8-(hydroxymethyl)pyrimido[4,5-d]pyridazin-5(6H)-one], 0.15 nM. As to `Cc1nn(-c2c(Cl)cccc2Cl)c(=O)c2cnc(Nc3ccc4c(c3)CCN(C)C4)nc12` [Example 435, 6-(2,6-dichlorophenyl)-8-methyl-2-[(2-methyl-1,2,3,4-tetrahydroisoquinolin-6-yl)amino]pyrimido[4,5-d]pyridazin-5(6H)-one], the Ki worked out at 0.46 nM.

Consider `Cc1nn(-c2c(Cl)cccc2Cl)c(=O)c2cnc(Nc3ccc4c(c3)CN(S(N)(=O)=O)CC43CC3)nc12` [Example 436, 7′-{[6-(2,6-dichlorophenyl)-8-methyl-5-oxo-5,6-dihydropyrimido[4,5-d]pyridazin-2-yl]amino}-1′H-spiro[cyclopropane-1,4′-isoquinoline]-2′(3′H)-sulfonamide], for which the Ki worked out at 0.65 nM. As to `Cc1nn(-c2c(Cl)cccc2Cl)c(=O)c2cnc(Nc3ccc4c(c3)CCN(C(=O)C(C)(C)O)C4)nc12` [Example 437, 6-(2,6-dichlorophenyl)-2-{[2-(2-hydroxy-2-methylpropanoyl)-1,2,3,4-tetrahydroisoquinolin-6-yl]amino}-8-methylpyrimido[4,5-d]pyridazin-5(6H)-one], the Ki was 0.8 nM. For `Cc1nn(-c2c(Cl)cccc2Cl)c(=O)c2cnc(Nc3ccc4c(c3)CNCC4(C)C)nc12` [Example 438, 6-(2,6-dichlorophenyl)-2-[(4,4-dimethyl-1,2,3,4-tetrahydroisoquinolin-7-yl)amino]-8-methylpyrimido[4,5-d]pyridazin-5(6H)-one] the value was 0.18 nM. In the case of `CC(=O)N1Cc2cc(Nc3ncc4c(=O)n(-c5c(Cl)cccc5Cl)nc(C)c4n3)ccc2C(C)(C)C1` [Example 439, 2-[(2-acetyl-4,4-dimethyl-1,2,3,4-tetrahydroisoquinolin-7-yl)amino]-6-(2,6-dichlorophenyl)-8-methylpyrimido[4,5-d]pyridazin-5(6H)-one] it was 0.69 nM; in that of `Cc1nn(-c2c(Cl)cccc2Cl)c(=O)c2cnc(Nc3ccc4c(c3)CN(C(=O)C3CC3)CC4(C)C)nc12` [Example 440, 2-{[2-(cyclopropylcarbonyl)-4,4-dimethyl-1,2,3,4-tetrahydroisoquinolin-7-yl]amino}-6-(2,6-dichlorophenyl)-8-methylpyrimido[4,5-d]pyridazin-5(6H)-one], 0.82 nM. As to `Cc1nn(-c2c(Cl)cccc2Cl)c(=O)c2cnc(Nc3ccc4c(c3)CN(S(C)(=O)=O)CC4(C)C)nc12` [Example 441, 6-(2,6-dichlorophenyl)-2-{[4,4-dimethyl-2-(methylsulfonyl)-1,2,3,4-tetrahydroisoquinolin-7-yl]amino}-8-methylpyrimido[4,5-d]pyridazin-5(6H)-one], the Ki came to 0.72 nM. In the case of `Cc1nn(-c2c(Cl)cccc2Cl)c(=O)c2cnc(Nc3ccc(N4CCNC(=O)C4)cc3)nc12` [Example 442, 6-(2,6-dichlorophenyl)-8-methyl-2-{[4-(3-oxopiperazin-1-yl)phenyl]amino}pyrimido[4,5-d]pyridazin-5(6H)-one] it was 0.46 nM; in that of `Cc1nn(-c2c(Cl)cccc2Cl)c(=O)c2cnc(Nc3ccc4c(c3)C(C)(C)N(C)CC4)nc12` [Example 443, 6-(2,6-dichlorophenyl)-8-methyl-2-[(1,1,2-trimethyl-1,2,3,4-tetrahydroisoquinolin-7-yl)amino]pyrimido[4,5-d]pyridazin-5(6H)-one], 0.3 nM; in that of `Cc1nn(-c2c(Cl)cccc2Cl)c(=O)c2cnc(Nc3ccc4c(c3)C(C)(C)NCC4)nc12` [Example 444, 6-(2,6-dichlorophenyl)-2-[(1,1-dimethyl-1,2,3,4-tetrahydroisoquinolin-7-yl)amino]-8-methylpyrimido[4,5-d]pyridazin-5(6H)-one], 0.16 nM. `Cc1nn(-c2c(Cl)cccc2Cl)c(=O)c2cnc(Nc3ccc(N4CCN(C5COC5)CC4)cc3)nc12` [Example 445, 6-(2,6-dichlorophenyl)-8-methyl-2-({4-[4-(oxetan-3-yl)piperazin-1-yl]phenyl}amino)pyrimido[4,5-d]pyridazin-5(6H)-one] had a Ki of 0.33 nM. In the case of `Cc1nn(-c2c(Cl)cccc2Cl)c(=O)c2cnc(Nc3ccc(N4CC5CNCC5C4)cc3)nc12` (stereo not shown) [Example 446, 6-(2,6-dichlorophenyl)-2-{[4-(hexahydropyrrolo[3,4-c]pyrrol-2(1H)-yl)phenyl]amino}-8-methylpyrimido[4,5-d]pyridazin-5(6H)-one] it was 0.27 nM; in that of `Cc1nn(-c2c(Cl)cncc2Cl)c(=O)c2cnc(Nc3ccc4c(c3)CNCC43CC3)nc12` [Example 447, 6-(3,5-dichloropyridin-4-yl)-2-(2′,3′-dihydro-1′H-spiro[cyclopropane-1,4′-isoquinolin]-7′-ylamino)-8-methylpyrimido[4,5-d]pyridazin-5(6H)-one], 0.4 nM; in that of `Cc1nn(-c2c(Cl)cncc2Cl)c(=O)c2cnc(Nc3ccc4c(c3)CCNC4)nc12` [Example 448, 6-(3,5-dichloropyridin-4-yl)-8-methyl-2-(1,2,3,4-tetrahydroisoquinolin-6-ylamino)pyrimido[4,5-d]pyridazin-5(6H)-one], 0.5 nM. Compound `CC(=O)N1CCc2cc(Nc3ncc4c(=O)n(-c5c(Cl)cccc5Cl)nc(C)c4n3)ccc2C1` [Example 449, 2-[(2-acetyl-1,2,3,4-tetrahydroisoquinolin-6-yl)amino]-6-(2,6-dichlorophenyl)-8-methylpyrimido[4,5-d]pyridazin-5(6H)-one] gave a Ki of 0.55 nM. For `Cc1nn(-c2c(Cl)cccc2Cl)c(=O)c2cnc(Nc3ccc4c(c3)CCN(S(C)(=O)=O)C4)nc12` [Example 450, 6-(2,6-dichlorophenyl)-8-methyl-2-{[2-(methylsulfonyl)-1,2,3,4-tetrahydroisoquinolin-6-yl]amino}pyrimido[4,5-d]pyridazin-5(6H)-one] the value was 0.61 nM.

For the compound `Cc1nn(-c2c(Cl)cccc2Cl)c(=O)c2cnc(Nc3ccc4c(c3)CNC4)nc12` [Example 451, 6-(2,6-dichlorophenyl)-2-(2,3-dihydro-1H-isoindol-5-ylamino)-8-methylpyrimido[4,5-d]pyridazin-5(6H)-one], the affinity corresponds to a Ki of 0.19 nM. As to `Cc1nn(-c2c(Cl)cccc2Cl)c(=O)c2cnc(Nc3ccc4c(c3)CCNC4(C)C)nc12` [Example 452, 6-(2,6-dichlorophenyl)-2-[(1,1-dimethyl-1,2,3,4-tetrahydroisoquinolin-6-yl)amino]-8-methylpyrimido[4,5-d]pyridazin-5(6H)-one], the Ki came out at 0.16 nM. On to `Cc1nn(-c2c(Cl)cccc2Cl)c(=O)c2cnc(Nc3ccc4c(c3)CCN(C)C4(C)C)nc12` [Example 453, 6-(2,6-dichlorophenyl)-8-methyl-2-[(1,1,2-trimethyl-1,2,3,4-tetrahydroisoquinolin-6-yl)amino]pyrimido[4,5-d]pyridazin-5(6H)-one], for which the Ki worked out at 0.36 nM.

Compound `Cc1nn(-c2c(Cl)cccc2Cl)c(=O)c2cnc(Nc3ccc(CN4CCN(C)CC4)cc3)nc12` [Example 454, 6-(2,6-dichlorophenyl)-8-methyl-2-({4-[(4-methylpiperazin-1-yl)methyl]phenyl}amino)pyrimido[4,5-d]pyridazin-5(6H)-one] registered a Ki of 1.2 nM.

The values above are taken from patent publication US8796289B2 (AbbVie Inc., priority 2011, dated 2014).
